Test results as given in patent US7671176B2, “Opiate receptor polypeptide” (The Research Foundation of SUNY, priority 2001, dated 2010).

Tested on: mu4 opiate receptor mRNA in mononuclear cells
Assay: Real-time RT-PCR of mu4 mRNA expression in treated human mononuclear cells
Type: cell-based
Settings: SNAP 1 μM
Experimental: Human heparinized whole blood cells obtained from volunteer blood donors (Long Island Blood Services; Melville, N.Y.) were immediately separated using the 1-Step Polymorphs (Accurate Chemical and Scientific Corporation, Westbury, N.Y.) gradient medium. Five mL of the heparinized blood was layered over 3.5 mL of polymorphs in a 14 mL round-bottom tube and centrifuged for 35 minutes at 500×g in a swinging-bucket rotor at 18° C. […] In addition, residual red blood cells were lysed using ACK lysing buffer (Current Protocol in Immunology). […] The cells were then treated with SNAP (1 μM), SNAP plus superoxide dismutase (SOD; 100 units/mL) (SIGMA St. Louis, Mo.), or SOD (100 U/mL), respectively.
After incubation, mononuclear cells were pelleted by centrifugation, and total RNA was isolated with the RNeasy Protect Mini Kit (Qiagen, Stanford, Calif.) following the directions supplied by the manufacturer. RNA was eluted with 50 μL of RNase-free water.
First strand cDNA synthesis was performed using random hexamers (GIBCO, BRL, Gaithesburg, Md.). 3 μg of total RNA isolated from human mononuclear cells were denatured at 95° C. and reverse transcribed at 40° C. for 1 hour using Superscript® II Rnase H-RT (GIBCO BRL, Gaithesburg Md.). Five μL of the RT product was used for the real-time PCR reaction.
Primers and probe specific for the mu4 opiate receptor sequence were designed as follows using the software Primer Express® (Applied Biosystems). […] The Taqman® probe was constructed with the 5′ reporter dye 6-carboxyfluorescein and a 3′ quencher dye 6-carboxy-tetramethyl-rhodoamine. The 2× universal master mix (Applied Biosystems) containing PCR buffer, MgCl2, dNTPs, and the thermal stable AmpliTaq Gold® DNA polymerase was used in the PCR reactions. In addition, 200 μM of reverse and forward primers, 100 μM Taqman® probe, 5 μL of RT product, and Rnase/DNase-free water were added to the master mix to a final volume of 50 μL. […] The PCR results were analyzed with the GeneAmp® 5700 SDS software (Applied Biosystems). […]

## CC(=O)NC(C(=O)O)C(C)(C)SN=O (racemic) [SNAP, S-nitroso-N-acetyl-DL-penicillamine]
After 6 hours of treatment, p=0.029 vs control
  mu4 mRNA expression: 8±5.6 relative mRNA level
After 24 hours of treatment, n=1
  mu4 mRNA expression: 10.5 relative mRNA level
Treated for 30 minutes, SOD 100 units/mL, nontreated cells 1.0
  mu4 mRNA expression: 0.05 relative mRNA level
